Experimental data taken from patent US5298521A, “1,5-diphenyl-3-pyrazolylalkyl-N-hydroxydithiocaramates, compositions and use” (Ortho Pharmaceutical Corporation, priority 1993, dated 1994).
Like-named read-outs stand apart in the source and are kept apart here.

Columns and labels:
CO = assay: Ex vivo eicosanoid synthesis in dog whole blood, CO (prostaglandin F2α or TxB2) (Procedure IV); details: Canis lupus familiaris, oral, read-out: PROC. IV % INHIB/HOURS CO; for inhibition at 5 mg/kg: 5 MPK
Method: (§1) Ex Vivo eicosanoid synthesis in dog whole blood. Adult beagle or mongrel dogs (10-15 kg) of either sex were fasted overnight prior to the initiation of each experiment. The forelimb was clipped and swabbed with an alcohol prep (70% isopropanol). Blood was drawn by venipuncture into syringes containing lithium heparin (Starstead, Newton NC) immediately prior to administration of compound or vehicle and then at various intervals following dosing. The test compound was administered orally as a suspension in 0.5% methocel. At various times after dosing, blood samples were drawn and placed on an electric rocker platform to assure complete and continuous mixing. White blood cell (wbc) counts were performed using a Sysmex hematology analyzer. This was done in an effort to normalize the number of leukocytes to be stimulated with calcium ionophore. A 1.0 mL aliquot of whole blood was challenged with 50 μL of a 2.6×10^-5 M solution of calcium ionophore A23187 (Calbiochem, La Jolla, CA) prepared in DMSO and diluted in HBSS. After a 15 minute incubation at 37° C., the reaction was stopped by placing the samples in an ice bath (4° C.) for 5 minutes and then centrifuged at 11,000×g for 5 minutes to separate the plasma fraction from blood cells. The plasma fraction was removed, diluted in an appropriate buffer, and analyzed for the presence of LTB4 and prostaglandin F2α or TxB2 by standard RIA techniques. […]

5-LO = assay: Ex vivo eicosanoid synthesis in dog whole blood, 5-LO (LTB4) (Procedure IV); details: Canis lupus familiaris, oral, read-out: PROC. IV % INHIB/HOURS 5-LO; for inhibition at 5 mg/kg: 5 MPK, 6 hours
Method: as §1

[1] = molecular target: T1, Sheep seminal vesicle cyclooxygenase (Ovis aries, UniProt P05979); assay: Sheep seminal vesicle cyclooxygenase (Procedure I); format: biochemical; details: read-out: PROC. I % INHIB CO
T1 construct: Sheep seminal vesicle (SSV) cyclooxygenase (95% pure); purchased Biomol (Plymouth Meeting, Pa.); host or cells: sheep seminal vesicle
T1 sequence (P05979 25-600): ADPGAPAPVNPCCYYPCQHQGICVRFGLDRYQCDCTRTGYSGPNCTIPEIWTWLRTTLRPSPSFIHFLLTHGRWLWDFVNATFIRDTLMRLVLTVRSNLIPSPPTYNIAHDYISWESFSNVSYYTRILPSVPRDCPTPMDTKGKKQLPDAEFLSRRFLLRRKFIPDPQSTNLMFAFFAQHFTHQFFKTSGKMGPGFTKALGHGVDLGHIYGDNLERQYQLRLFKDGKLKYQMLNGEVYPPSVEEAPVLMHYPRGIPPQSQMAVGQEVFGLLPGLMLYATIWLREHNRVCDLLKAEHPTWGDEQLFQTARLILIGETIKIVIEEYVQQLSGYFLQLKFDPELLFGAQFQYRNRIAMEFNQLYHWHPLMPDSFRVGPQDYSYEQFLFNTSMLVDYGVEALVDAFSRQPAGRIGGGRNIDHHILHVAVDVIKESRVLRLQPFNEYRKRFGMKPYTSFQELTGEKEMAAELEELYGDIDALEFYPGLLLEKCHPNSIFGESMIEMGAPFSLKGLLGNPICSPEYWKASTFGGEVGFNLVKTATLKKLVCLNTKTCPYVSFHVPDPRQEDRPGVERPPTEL
Method: Sheep seminal vesicle cyclooxygenase Sheep seminal vesicle (SSV) cyclooxygenase (95% pure, prostaglandin endoperoxide synthase, EC 1.14.99.1 specific activity 24 units/mg protein) obtained as a lyophilized powder from Biomol (Plymouth Meeting, Pa.) was reconstituted at a concentration of 59 mg/mL in Hanks' Balanced Salt Solution (HBSS). The enzyme was divided into 200 μL aliquots, snap frozen with liquid N2, and stored at -70° C. unitl immediately prior to use. Measurements of CO activity were carried out in polypropylene tubes containing 495 μL of HBSS to which was added 5 μL of inhibitor or dimethylsulfoxide (DMSO; vehicle control) and 6 μL of SSV CO solution. The tubes were mixed on a vortex shaker, preincubated for 5 min at 37° C. prior to the initiation of the reaction. The reaction was started by the addition of [^14 C]-arachidonic acid (1-^14 C-AA, Amersham, Arlington Heights, Il) in 10 μL of methanol. Tubes were again vortexed and incubated in a water bath for 20 minutes after which the tubes were removed and the reaction stopped by acidification with the addition of 1 mL 2M formic acid. Lipophilic products were extracted with 3 mL chloroform and concentrated to dryness under N2. Each pellet was reconstituted with 40 μL of chloroform and spotted on a Whatman Silicon thin-layer chromatography plate and developed in a chromatography tank containing A-9 solvent (11:5:2:1 V:V:V:V, ethyl acetate:trimethylpentane:acetic acid:double distilled-H2 O). Radioactive cyclooxygenase products (prostaglandin D2, prostaglandin E2, etc.) were measured using a Bioscan System 200 Imaging Scanner. Inhibition of enzyme activity was calculated by comparing the areas under the curve produced in the presence or absence of test compound.

CO in intact RBL-1 cells = assay: CO inhibition in intact RBL-1 cells (Procedure III); format: cell-based, rat; details: superscript = number of experiments, read-out: PROC. III IC50 CO
Method: The ability to inhibit 5-LO and CO in intact RBL-1 cells was also evaluated. RBL-1 cells were maintained in culture in minimal essential medium (Bio*Whittaker, Walkersville, MD), containing 12.5% fetal calf serum, 10 mg/mL streptomycin, 10 I.U./mL penicillin G, […] gentamycin and 2 mM L-glutamine (Bio*Whittaker, Walkersville, MD). Cells were collected by centrifugation, washed once in HBSS, and resuspended at a concentration of 1×10^5 cells/mL. Cells were incubated in the presence of vehicle or drug then centrifuged at 800×g for 10 minutes at 4° C. The supernatant was removed by aspiration and the cells were resuspended in 0.5 mL of HBSS. The reaction was started by the addition of 20 μg/mL of calcium ionophore A-23187 (mixed calcium and magnesium salts, Calbiochem, La Jolla CA) and allowed to proceed for 15 minutes, then stopped by plunging the tubes into a slush ice bath. The conversion of AA to 5-LO products was initiated by the addition of 10 μL (50 uCi) of 1-^14 C-AA. Products were isolated by acidification and extraction, followed by thin layer chromatography analysis as described above. Radioactive areas corresponding to authentic 5-LO and CO products were quantitated by the Bioscan 2000 Imaging System.

Row | Structure (SMILES) | inhibition at 1 mg/kg (CO; 1 MPK, 2 hours) | inhibition at 1 mg/kg (5-LO; 1 MPK, 2 hours) | inhibition at 3 µM [1] | IC50 (CO in intact RBL-1 cells) | inhibition at 5 mg/kg (CO; 24 hours) | inhibition at 5 mg/kg (5-LO) | inhibition at 5 mg/kg (CO; 6 hours)
1 | COc1ccc(-n2nc(CSC(=S)N(O)C(C)C)cc2-c2ccc(Cl)cc2)cc1 [1-B] | 77% | 36% | 39% | 1400 nM |  |  | 
2 | COc1ccc(-n2nc(CSC(=S)N(C)O)c(Cl)c2-c2ccc(Cl)cc2)cc1 [1-C] |  |  | 46% | 2400 nM |  |  | 
3 | COc1ccc(-n2nc(CSC(=S)N(O)C(C)C)c(Cl)c2-c2ccc(Cl)cc2)cc1 [1-D] |  |  | 31% |  | 32% | 2% | 
4 | COc1ccc(-n2nc(CSC(=S)N(O)C(C)C)c(Br)c2-c2ccc(Cl)cc2)cc1 [1-E] |  |  | 0% | 6500 nM |  | 41% | 31%
5 | COc1ccc(-n2nc(CSC(=S)N(O)C(C)C)cc2-c2ccc(C)cc2)cc1 [1-G] |  |  | 36% | 180 nM |  |  | 
6 | COc1ccc(-n2nc(CSC(=S)N(C)O)c(Cl)c2-c2ccc(C)cc2)cc1 [1-H] |  |  | 39% | 1600 nM |  |  | 
